Test systems include M14; LOX IMVI; CAKI-1; SF-539; OVCAR-4; HCC 2998; SN12C; KM12; HOP-62; OVCAR-3; UO-31; A549; 786-0; A498; NCI-H23.
What all share (assay): growth of human tumour cells (NCI), 48 h

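How tested: cells in 96-well plates exposed to compound for 48 hours at five concentrations. GI50 = concentration required for 50% inhibition of growth.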 Activity calls are given as the source filed them. Cut-off read from the data, not from the text of the source: active = GI50 up to about 1.1 µM and inactive = higher.

The values that follow come from ChEMBL document CHEMBL1201862, “PubChem BioAssay data set” (2004).

Regarding `Cn1c(=O)n(CC2CS2)c2ccccc21` (stereo not drawn), the GI50 in the test on M14 was > 100 µM (inactive); in the test with LOX IMVI, > 100 µM (inactive); in the test on CAKI-1 it was 44.5 µM (inactive); with SF-539 it was > 100 µM (inactive); with OVCAR-4 it was > 100 µM (inactive); in the test on HCC 2998 it was > 100 µM (inactive). Also, the GI50 with SN12C, with KM12, with HOP-62, in the test with OVCAR-3, with UO-31 and in the test with A549 was > 100 µM (inactive) in each case.
`CC1(n2nc(-c3ccccc3)n(-c3ccccc3)c2=O)CSC1`: the GI50 in the test on M14, with LOX IMVI, in the test on CAKI-1, in the test on 786-0, in the test on SF-539 and in the test with OVCAR-4 was > 100 µM (inactive) throughout. Moreover, the GI50 was 38.2 µM (inactive) with A498; > 100 µM (inactive) in the test with HCC 2998; > 100 µM (inactive) in the test with SN12C; > 100 µM (inactive) in the test with KM12; > 100 µM (inactive) in the test on NCI-H23; > 100 µM (inactive) in the test with HOP-62. In addition, the GI50 in the test on UO-31 and in the test on A549 was > 100 µM (inactive) each time.
For `N=C(N)NCCCC(Nc1c2ccccc2[n+]([O-])c2ccccc12)C(=O)O` (stereo not drawn), the GI50 was 73.6 µM (inactive) with M14; 37.3 µM (inactive) with LOX IMVI; 67.5 µM (inactive) in the test with 786-0; 65.5 µM (inactive) in the test with OVCAR-4; > 100 µM (inactive) with A498; 27.2 µM (inactive) in the test on HCC 2998. Also, the GI50 is 44.1 µM (inactive) in the test with SN12C; 68.4 µM (inactive) in the test with KM12; 34.6 µM (inactive) with NCI-H23; > 100 µM (inactive) with HOP-62; 63.4 µM (inactive) in the test on OVCAR-3; 30.8 µM (inactive) in the test on UO-31. The GI50 in the test on A549 is > 100 µM (inactive).
As to `O=Cc1cn(C(=O)c2ccccc2)c2ccccc12`, the GI50 was > 100 µM (inactive) in the test with M14; 82.8 µM (inactive) in the test with CAKI-1; > 100 µM (inactive) in the test with 786-0; 80 µM (inactive) in the test on SF-539; > 100 µM (inactive) in the test with OVCAR-4; > 100 µM (inactive) in the test on A498. Moreover, the GI50 with HCC 2998 is > 100 µM (inactive); in the test on KM12, 64 µM (inactive); with NCI-H23 it was 80.4 µM (inactive); in the test on HOP-62, > 100 µM (inactive); in the test with OVCAR-3, > 100 µM (inactive); in the test with UO-31, 36.6 µM (inactive). Besides, in the test on A549, the GI50 was > 100 µM (inactive).
Consider `COc1cc(OC)c(C#N)c(OC)c1C`, for which the GI50 in the test on LOX IMVI, in the test on CAKI-1, with 786-0, with SF-539, in the test on OVCAR-4 and in the test on A498 was > 100 µM (inactive) in each case. For the same compound, the GI50 with SN12C, in the test with KM12, in the test with NCI-H23, with HOP-62, in the test with UO-31 and with A549 was > 100 µM (inactive) in each case.
`O=CC1CCCc2ccccc21` (stereo not drawn): the GI50 in the test with M14 is > 100 µM (inactive); with LOX IMVI it was > 44.1 µM (inactive); in the test on CAKI-1, > 100 µM (inactive); in the test on 786-0 it was > 100 µM (inactive); with OVCAR-4, > 100 µM (inactive); with A498, > 100 µM (inactive). In addition, the GI50 in the test with HCC 2998, in the test on SN12C, in the test with KM12, with NCI-H23, in the test with HOP-62 and in the test on OVCAR-3 was > 100 µM (inactive) throughout. Further, the GI50 with UO-31 and with A549 was > 100 µM (inactive) each time.
For the compound `O=C(c1ccccc1)[C@H]1Nc2ccc(Cl)cc2[C@H]2OCCC[C@@H]12`, the GI50 in the test with M14 is 17.5 µM (inactive); in the test on LOX IMVI, 16.7 µM (inactive); in the test with CAKI-1, 23 µM (inactive); in the test with OVCAR-4, 20.7 µM (inactive); in the test with HCC 2998, 22.2 µM (inactive); in the test on SN12C it was 19.7 µM (inactive). The GI50 with KM12 was 19 µM (inactive); in the test on NCI-H23, 24.7 µM (inactive); with HOP-62 it was 18 µM (inactive); with OVCAR-3 it was 14.9 µM (inactive); in the test on UO-31 it was 15.9 µM (inactive).
On to `COc1cc(C2C3=C(CCC3=O)Oc3cc4c(cc32)OCO4)cc(OC)c1OC` (stereo not drawn), for which the GI50 was 0.349 µM (active) in the test with M14; 0.491 µM (active) in the test with LOX IMVI; 0.222 µM (active) in the test on CAKI-1; 10 µM (inactive) in the test on OVCAR-4; 0.593 µM (active) with SN12C; 0.39 µM (active) in the test with NCI-H23. The GI50 in the test on HOP-62 was 0.0324 µM (active); with OVCAR-3, 0.136 µM (active); in the test on UO-31, 0.321 µM (active); in the test on A549 it was 0.448 µM (active).
As to `O=P(Nc1cccc(Cl)c1)(Oc1ccccc1)N(CCCl)CCCl` (stereo not drawn), the GI50 in the test with M14 is 15.2 µM (inactive); with CAKI-1 it was 13.9 µM (inactive); with SF-539 it was 16.7 µM (inactive); in the test with OVCAR-4 it was 11.7 µM (inactive); in the test on A498, 14.4 µM (inactive); with HCC 2998, 14.8 µM (inactive). Further, the GI50 in the test on SN12C was 14.9 µM (inactive); with KM12 it was 14.8 µM (inactive); in the test on NCI-H23, 16.5 µM (inactive); in the test with HOP-62 it was 16.6 µM (inactive); with OVCAR-3 it was 14.2 µM (inactive); in the test with UO-31, 85.9 µM (inactive). Moreover, the GI50 in the test with A549 is 13.2 µM (inactive).
For `Cc1ccc2c(c1CCCC(C)(C)O)C(=O)C(O)=C(C(C)C)C2=O`, the GI50 in the test on M14, in the test with CAKI-1, with 786-0, in the test on SF-539, with OVCAR-4 and in the test with A498 was > 100 µM (inactive) in each case. Moreover, the GI50 is > 100 µM (inactive) in the test on HCC 2998; 78.3 µM (inactive) in the test on SN12C; > 100 µM (inactive) in the test on KM12; 59.3 µM (inactive) with NCI-H23; 66.7 µM (inactive) with OVCAR-3; 76 µM (inactive) with UO-31. In addition, the GI50 in the test on A549 was 50.6 µM (inactive).
`COC(=O)C(Cc1nc2ccccc2nc1O)C(=O)C(=O)Nc1ccc(F)cc1` (stereo not drawn): the GI50 is 74.8 µM (inactive) in the test on M14; 41.3 µM (inactive) in the test on LOX IMVI; > 100 µM (inactive) with CAKI-1; 25.4 µM (inactive) in the test with 786-0; 37 µM (inactive) in the test on SF-539; 77.3 µM (inactive) in the test on OVCAR-4. Moreover, the GI50 is > 100 µM (inactive) in the test with HCC 2998; 40.9 µM (inactive) with SN12C; 41 µM (inactive) with KM12; 34 µM (inactive) in the test on NCI-H23; > 100 µM (inactive) in the test with HOP-62; 40.6 µM (inactive) in the test with OVCAR-3. Further, the GI50 with UO-31 and in the test with A549 was > 100 µM (inactive) each time.
As to `O=C(Nc1ccccc1)C(=O)C(C(=O)c1ccccc1F)C1OC(=O)c2ccccc21` (stereo not drawn), the GI50 in the test with M14 was 44 µM (inactive); in the test with LOX IMVI, 27.2 µM (inactive); with CAKI-1, 55.6 µM (inactive); in the test on SF-539, 19.3 µM (inactive); with OVCAR-4 it was 31.6 µM (inactive); in the test with A498 it was 89.3 µM (inactive). In addition, the GI50 in the test on HCC 2998 was 30.3 µM (inactive); with SN12C it was 37.1 µM (inactive); with KM12, 26.9 µM (inactive); in the test with NCI-H23, 47.3 µM (inactive); in the test on HOP-62 it was 42.8 µM (inactive); in the test on UO-31 it was 47.3 µM (inactive). The GI50 in the test with A549 was 37.8 µM (inactive).
With `CCOC(=O)CC(=O)ON(C)C(=O)Cc1ccccc1`, the GI50 in the test with M14, in the test with LOX IMVI, in the test on CAKI-1, in the test with 786-0, in the test on SF-539 and in the test with OVCAR-4 was > 100 µM (inactive) in each case. The GI50 in the test on A498, with SN12C, with KM12, in the test with NCI-H23, with HOP-62 and in the test on OVCAR-3 was > 100 µM (inactive) throughout. For the same compound, the GI50 in the test on UO-31 and in the test with A549 was > 100 µM (inactive) in each case.
For `C[P+](C)(C)c1ccccc1`, the GI50 with M14, in the test on LOX IMVI, in the test with CAKI-1, in the test with 786-0, in the test on SF-539 and in the test on OVCAR-4 was > 100 µM (inactive) throughout. The GI50 in the test with HCC 2998, in the test on SN12C, with KM12, in the test on NCI-H23, with HOP-62 and with OVCAR-3 was > 100 µM (inactive) in each case. Besides, the GI50 with UO-31 and in the test with A549 was > 100 µM (inactive) in each case.
With `Cc1cc(O)nc(NNC(C#N)c2cccc(O)c2)n1` (stereo not drawn), the GI50 in the test on M14, with LOX IMVI, with CAKI-1, with 786-0, in the test on SF-539 and in the test with OVCAR-4 was > 100 µM (inactive) throughout. Moreover, the GI50 in the test with SN12C, with KM12, in the test with NCI-H23, in the test with HOP-62, in the test on OVCAR-3 and in the test on UO-31 was > 100 µM (inactive) throughout. In addition, the GI50 in the test on A549 is > 100 µM (inactive).
